Laboratory results published in the supplement of paper PMC11208160.

Experiments:
[1] = recombinant barcode read abundance after kanamycin selection (control-corrected) (log10(CPM+1)); higher = more efficient recombination; sequences stand for … in AGTGCAGAGAAAATCGGCCAGTTTTCTCTGCCTGCAGTCCGCATGCCGT…ATTTATGCAGCGGACTGCCTTTCTCCCAAAGTGATAAACCGGACAGTATCATGGACCGGTTTTCCCGGTAATCCGTATTTGCAAGGTTGGTTTCACT; site = the 11-nt target
Protocol: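 Same pooled E. coli target screen (IS621 bridge recombinase, kanamycin selection, control-corrected CPM, mean of 2 biological replicates). Here the two core-binding nucleotides of the LTG and RTG of the bridge RNA target-binding loop are mutated. Target and donor CT cores are held constant, and the other 9 guide positions match the target. The target is read from the library oligo sequence. Molecule = full bridge RNA written as DNA: nt 1-80 from the library oligo, rest WT scaffold.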

[2] = recombinant barcode read abundance after kanamycin selection (control-corrected) (log10(CPM+1)); higher = more efficient recombination; sequences stand for … in AGTGCAGAGAAAATCGGCCAGTTTTCTCTGCCTGCAGTCCGCATGCCGT…AGATTTATGCAGCGGACTGCCTTTCTCCCAAAGTGATAAACCGGACAGTATCATGGACCGGTTTTCCCGGTAATCCGTATTTGCAAGGTTGGTTTCACT; site = the 11-nt target
Procedure, shortened: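 A promoter, a target, a barcode and the first 104 bridge RNA bases under J23119 made up each oligo. Oligos were Gibson-cloned into a vector bearing the other 73 bp and a T7-inducible recombinase, then co-electroporated into E. coli with a donor plasmid and plated in duplicate on chloramphenicol/ampicillin LB agar (control) or chloramphenicol/ampicillin/kanamycin with 0.1 mM IPTG. Recombination efficiency is the averaged, control-corrected counts per million of recombinant-junction barcodes. Reported values are log10(CPM+1).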

Sequence	recombinant barcode read abundance (log10) [1]	recombinant barcode read abundance (log10) [2]
AAACACAACTGGGTTCTAACCTGTTGCCTGT [AAACACACTAG_LTGcore_AC_RTGcore_AC] (site AAACACACTAG) (LTG core: AC, RTG core: AC)	0.0446	–
AAACACAATTGGGTTCTAACCTGTTGCCTAT [AAACACACTAG_LTGcore_AT_RTGcore_AT] (site AAACACACTAG) (LTG core: AT, RTG core: AT)	0.209	–
AAACACACTTGGGTTCTAACCTGTTGCCTCT [AAACACACTAG_LTGcore_CT_RTGcore_AG] (site AAACACACTAG) (LTG core: CT, RTG core: AG)	2.46	–
AAACACACTTGGGTTCTAACCTGTTGCCTGA [AAACACACTAG_LTGcore_CT_RTGcore_TC] (site AAACACACTAG) (LTG core: CT, RTG core: TC)	1.19	–
AAACACACTTGGGTTCTAACCTGTTGCCTTC [AAACACACTAG_LTGcore_CT_RTGcore_GA] (site AAACACACTAG) (LTG core: CT, RTG core: GA)	0.477	–
AAACACACTTGGGTTCTAACCTGTTGCCTTG [AAACACACTAG_LTGcore_CT_RTGcore_CA] (site AAACACACTAG) (LTG core: CT, RTG core: CA)	0.248	–
AAACACAGATGGGTTCTAACCTGTTGCCTTC [AAACACACTAG_LTGcore_GA_RTGcore_GA] (site AAACACACTAG) (LTG core: GA, RTG core: GA)	0.152	–
AAACACAGCTGGGTTCTAACCTGTTGCCTAG [AAACACACTAG_LTGcore_GC_RTGcore_CT] (site AAACACACTAG) (LTG core: GC, RTG core: CT)	0.0255	–
AAACACAGGTGGGTTCTAACCTGTTGCCTAG [AAACACACTAG_LTGcore_GG_RTGcore_CT] (site AAACACACTAG) (LTG core: GG, RTG core: CT)	0.463	–
AAACACAGGTGGGTTCTAACCTGTTGCCTCC [AAACACACTAG_LTGcore_GG_RTGcore_GG] (site AAACACACTAG) (LTG core: GG, RTG core: GG)	0.0137	–
AAACACATGTGGGTTCTAACCTGTTGCCTAG [AAACACACTAG_LTGcore_TG_RTGcore_CT] (site AAACACACTAG) (LTG core: TG, RTG core: CT)	0.247	–
AAACACATTTGGGTTCTAACCTGTTGCCTAA [AAACACACTAG_LTGcore_TT_RTGcore_TT] (site AAACACACTAG) (LTG core: TT, RTG core: TT)	0.889	–
AAACAGTAATGGGTTCTAACCTGTTGCCTTT [AAACAGTCTAG_LTGcore_AA_RTGcore_AA] (site AAACAGTCTAG) (LTG core: AA, RTG core: AA)	0.199	–
AAACAGTCCTGGGTTCTAACCTGTTGCCTGG [AAACAGTCTAG_LTGcore_CC_RTGcore_CC] (site AAACAGTCTAG) (LTG core: CC, RTG core: CC)	0.0864	–
AAACAGTCTTGGGTTCTAACCTGTTGCCTAC [AAACAGTCTAG_LTGcore_CT_RTGcore_GT] (site AAACAGTCTAG) (LTG core: CT, RTG core: GT)	0.553	–
AAACAGTCTTGGGTTCTAACCTGTTGCCTCG [AAACAGTCTAG_LTGcore_CT_RTGcore_CG] (site AAACAGTCTAG) (LTG core: CT, RTG core: CG)	1.3	–
AAACAGTCTTGGGTTCTAACCTGTTGCCTGT [AAACAGTCTAG_LTGcore_CT_RTGcore_AC] (site AAACAGTCTAG) (LTG core: CT, RTG core: AC)	1.66	–
AAACAGTCTTGGGTTCTAACCTGTTGCCTTT [AAACAGTCTAG_LTGcore_CT_RTGcore_AA] (site AAACAGTCTAG) (LTG core: CT, RTG core: AA)	1.32	–
AAACAGTGCTGGGTTCTAACCTGTTGCCTGC [AAACAGTCTAG_LTGcore_GC_RTGcore_GC] (site AAACAGTCTAG) (LTG core: GC, RTG core: GC)	0.0997	–
AAACAGTGGTGGGTTCTAACCTGTTGCCTCC [AAACAGTCTAG_LTGcore_GG_RTGcore_GG] (site AAACAGTCTAG) (LTG core: GG, RTG core: GG)	0.0531	–
AAACAGTGTTGGGTTCTAACCTGTTGCCTAC [AAACAGTCTAG_LTGcore_GT_RTGcore_GT] (site AAACAGTCTAG) (LTG core: GT, RTG core: GT)	0.0266	–
AAACAGTGTTGGGTTCTAACCTGTTGCCTAG [AAACAGTCTAG_LTGcore_GT_RTGcore_CT] (site AAACAGTCTAG) (LTG core: GT, RTG core: CT)	0.0452	–
AAACAGTTGTGGGTTCTAACCTGTTGCCTAG [AAACAGTCTAG_LTGcore_TG_RTGcore_CT] (site AAACAGTCTAG) (LTG core: TG, RTG core: CT)	0.029	–
AAACAGTTTTGGGTTCTAACCTGTTGCCTAA [AAACAGTCTAG_LTGcore_TT_RTGcore_TT] (site AAACAGTCTAG) (LTG core: TT, RTG core: TT)	0.182	–
AAACATGAGTGGGTTCTAACCTGTTGCCTAG [AAACATGCTAG_LTGcore_AG_RTGcore_CT] (site AAACATGCTAG) (LTG core: AG, RTG core: CT)	0.109	–
AAACATGAGTGGGTTCTAACCTGTTGCCTCT [AAACATGCTAG_LTGcore_AG_RTGcore_AG] (site AAACATGCTAG) (LTG core: AG, RTG core: AG)	0.191	–
AAACATGCGTGGGTTCTAACCTGTTGCCTCG [AAACATGCTAG_LTGcore_CG_RTGcore_CG] (site AAACATGCTAG) (LTG core: CG, RTG core: CG)	0.135	–

Sequence	recombinant barcode read abundance (log10) [1]	recombinant barcode read abundance (log10) [2]
AAACATGCTTGGGTTCTAACCTGTTGCCTAT [AAACATGCTAG_LTGcore_CT_RTGcore_AT] (site AAACATGCTAG) (LTG core: CT, RTG core: AT)	0.681	–
AAACATGCTTGGGTTCTAACCTGTTGCCTCA [AAACATGCTAG_LTGcore_CT_RTGcore_TG] (site AAACATGCTAG) (LTG core: CT, RTG core: TG)	0.288	–
AAACATGCTTGGGTTCTAACCTGTTGCCTCG [AAACATGCTAG_LTGcore_CT_RTGcore_CG] (site AAACATGCTAG) (LTG core: CT, RTG core: CG)	1.02	–
TTGGATCCTTGGGTTCTAACCTGTTGCCT (site TTGGATCCTAA)	–	0.382
TTGGATCCTTGGGTTCTAACCTGTTGCCT (site TTGGATCCTAG)	–	2.31
TTGGCGCCTTGGGTTCTAACCTGTTGCCT (site TCGGCTCCTAG)	–	0.0935
TTGGCGCCTTGGGTTCTAACCTGTTGCCT (site TTGGCGCCTAG)	–	0.529
TTGGGAGCTTGGGTTCTAACCTGTTGCCT (site TTGGAAGCTAG)	–	0.984
TTGGGAGCTTGGGTTCTAACCTGTTGCCT (site TTGGCAGCTAG)	–	0.11
TTGGGAGCTTGGGTTCTAACCTGTTGCCT (site TTGGGAGCTAG)	–	2.26
TTGGGAGCTTGGGTTCTAACCTGTTGCCT (site TTGGTAGCTAG)	–	0.442
TTGGGCGCTTGGGTTCTAACCTGTTGCCT (site TTGGACGCTAG)	–	0.0866
TTGGGCGCTTGGGTTCTAACCTGTTGCCT (site TTGGCCGCTAG)	–	0.154
TTGGGCGCTTGGGTTCTAACCTGTTGCCT (site TTGGGCGCTAG)	–	0.643
TTGGGCGCTTGGGTTCTAACCTGTTGCCT (site TTGGTCGCTAG)	–	0.0335
TTGGTCACTTGGGTTCTAACCTGTTGCCT (site TTGGACACTAG)	–	0.358
TTGGTCACTTGGGTTCTAACCTGTTGCCT (site TTGGCCACTAG)	–	0.309
TTGGTCACTTGGGTTCTAACCTGTTGCCT (site TTGGGCACTAG)	–	0.205
TTGGTCACTTGGGTTCTAACCTGTTGCCT (site TTGGTCACTAG)	–	2.1
TTGGTCGCTTGGGTTCTAACCTGTTGCCT (site TTGGACGCTAG)	–	0.0736
TTGGTCGCTTGGGTTCTAACCTGTTGCCT (site TTGGCCGCTAG)	–	1.4
TTGGTCGCTTGGGTTCTAACCTGTTGCCT (site TTGGGCGCTAG)	–	0.085
TTGGTCGCTTGGGTTCTAACCTGTTGCCT (site TTGGTCGCTAG)	–	1.71
TTGTAGACTTGGGTTCTAACCTGTTGCCT (site TTGATGACTAG)	–	0.484
TTGTAGACTTGGGTTCTAACCTGTTGCCT (site TTGTAGACTAG)	–	1.22
TTGTGTTCTTGGGTTCTAACCTGTTGCTA (site GTGTGTTCTTG)	–	0.0284
TTGTGTTCTTGGGTTCTAACCTGTTGCTA (site TTGTGTTCTTA)	–	0.465
